The subject of assay [1] is SGC-7901. The assay can be described thus: Antiproliferative activity against human SGC7901 cells after 48 hrs by MTT assay. The format is functional, cell-based. The settings on record: SGC-7901, 48 h. On the technique in general: Tetrazolium dyes change colour on reduction, which living cells bring about.
For assay [2], the system named is MCF7. The assay can be described thus: Antiproliferative activity against human MCF7 cells after 48 hrs by MTT assay. In kind it is functional, cell-based. The settings on record: MCF7, 48 h.
Assay [3] deals with A549. As to the kind of experiment: Antiproliferative activity against human A549 cells after 48 hrs by MTT assay. In kind it is functional, cell-based. The settings on record: A549, 48 h.
For assay [4], the system named is Bel-7402. As to the kind of experiment: Antiproliferative activity against human Bel7402 cells after 48 hrs by MTT assay. The settings on record: for IC50: Bel-7402, 48 h. The format is functional, cell-based.
In assay [5] the test system is HepG2. The assay can be described thus: Antiproliferative activity against human HepG2 cells after 48 hrs by MTT assay. The format is functional, cell-based.
Assay [6] deals with HepG2. As to the kind of experiment: Antiproliferative activity against human HepG2 cells at 5 to 40 uM by MTT assay. As to conditions: TDE = time-dependent effect. The format is functional, cell-based.
Assay [7] concerns Bel-7402. The assay can be described thus: Antiproliferative activity against human Bel7402 cells at 5 to 40 uM by MTT assay. The settings on record: TDE = time-dependent effect. In kind it is functional, cell-based.
Assay [8] relates to Bel-7402. As to the kind of experiment: Cell cycle arrest in human Bel7402 cells assessed as accumulation at G1 phase after 24 hrs by propidium iodide staining-based flow cytometry. In kind it is functional. (In general: A flow cytometer gives signals particle by particle.)
Assay [9] deals with HepG2. The assay can be described thus: Cell cycle arrest in human HepG2 cells assessed as accumulation at G1 phase after 24 hrs by propidium iodide staining-based flow cytometry. The format is functional.
In assay [10] the test system is Bel-7402. As to the kind of experiment: Cell cycle arrest in human Bel7402 cells assessed as accumulation at G1 phase at 10 uM after 24 hrs by propidium iodide staining-based flow cytometry (reference value: 49%). In kind it is functional.
In assay [11] the test system is Bel-7402. As to the kind of experiment: Cell cycle arrest in human Bel7402 cells assessed as accumulation at G1 phase at 20 uM after 24 hrs by propidium iodide staining-based flow cytometry (reference value: 49%). The format is functional.
Assay [12] has as its system HepG2. As to the kind of experiment: Cell cycle arrest in human HepG2 cells assessed as accumulation at G1 phase at 10 uM after 24 hrs by propidium iodide staining-based flow cytometry (reference value: 48%). In kind it is functional.
Assay [13] deals with HepG2. The assay can be described thus: Cell cycle arrest in human HepG2 cells assessed as accumulation at G1 phase at 20 uM after 24 hrs by propidium iodide staining-based flow cytometry (reference value: 48%). In kind it is functional.
The subject of assay [14] is Bel-7402. As to the kind of experiment: Antimigratory activity in human Bel7402 cells assessed as cell migration at 10 uM incubated for 48 hrs by wound healing assay (reference value: 60%). In kind it is functional.
Assay [15] has as its system Bel-7402. The assay can be described thus: Antimigratory activity in human Bel7402 cells assessed as cell migration at 20 uM incubated for 48 hrs by wound healing assay (reference value: 60%). The format is functional.
Assay [16] concerns HepG2. The assay can be described thus: Antimigratory activity in human HepG2 cells assessed as cell migration at 10 uM incubated for 48 hrs by wound healing assay (reference value: 58%). In kind it is functional.
Assay [17] concerns HepG2. The assay can be described thus: Antimigratory activity in human HepG2 cells assessed as cell migration at 20 uM incubated for 48 hrs by wound healing assay (reference value: 58%). The format is functional.
Assay [18] deals with Bel-7402. As to the kind of experiment: Upregulation of P21 in human Bel7402 cells at 5 to 20 uM after 24 hrs by Western blot analysis. In kind it is functional, cell-based. A general note: A western blot detects proteins with antibodies after separation by electrophoresis.
In assay [19] the test system is Bel-7402. The assay can be described thus: Upregulation of P27 in human Bel7402 cells at 5 to 20 uM after 24 hrs by Western blot analysis. The format is functional, cell-based.
In assay [20] the test system is Bel-7402. The assay can be described thus: Upregulation of E-cadherin in human Bel7402 cells after 48 hrs by Western blot analysis. The format is functional, cell-based.
The test system of assay [21] is Bel-7402. As to the kind of experiment: Downregulation of N-cadherin in human Bel7402 cells after 48 hrs by Western blot analysis. The format is functional, cell-based.
In assay [22] the test system is HepG2. As to the kind of experiment: Upregulation of E-cadherin in human HepG2 cells after 48 hrs by Western blot analysis. The format is functional, cell-based.
The test system of assay [23] is HepG2. As to the kind of experiment: Downregulation of N-cadherin in human HepG2 cells after 48 hrs by Western blot analysis. The format is functional, cell-based.
Assay [24] relates to HepG2. The assay can be described thus: Upregulation of P21 in human HepG2 cells at 5 to 20 uM after 24 hrs by Western blot analysis. In kind it is functional, cell-based.
The test system of assay [25] is HepG2. The assay can be described thus: Upregulation of P27 in human HepG2 cells at 5 to 20 uM after 24 hrs by Western blot analysis. The format is functional, cell-based.

IC50 and Activity data for 16 compounds are collected here from ChEMBL document CHEMBL4477244, “Synthesis and biological evaluation of matrine derivatives as anti-hepatocellular cancer agents” (Bioorg Med Chem Lett, 2016).

Molecules are shown by their SMILES. The source made the active and inactive calls. No cut-off for these calls is given here.

With `COc1cccc2c(=O)c3c(oc12)N1C[C@@H]2CCCN4CCC[C@@H]([C@H]24)[C@H]1CC3`, the IC50 in assay [1] is 81.6 µM; in [2] it was 75.4 µM; in assay [3], 96.5 µM; in assay [4] it was 71.9 µM.
The corresponding values for `O=c1c2c(oc3cc(C(F)(F)F)ccc13)N1C[C@@H]3CCCN4CCC[C@@H]([C@H]34)[C@H]1CC2` are 34.9 µM, 30.7 µM, 41.2 µM and 31.4 µM.
In the same order, the values of `O=c1c2c(oc3cc(C(F)(F)F)ccc13)N1C[C@@H]3CCC[N+]4([O-])CCC[C@@H]([C@H]34)[C@H]1CC2` (stereo partly specified) are 79.1 µM, 73.8 µM, 114 µM and 66 µM.
On to `Cc1ccc2c(=O)c3c(oc2c1)N1C[C@@H]2CCCN4CCC[C@@H]([C@H]24)[C@H]1CC3`, for which the IC50 in assay [1] stood at 46.8 µM; in [2], 48.6 µM; in assay [3], 52.9 µM; in assay [4], 30.3 µM.
In the same order, the values of `Cc1ccc2oc3c(c(=O)c2c1)CC[C@@H]1[C@H]2CCCN4CCC[C@@H](CN31)[C@@H]24` are 40.5 µM, 57.1 µM, 97.2 µM and 37 µM.
The corresponding values for `O=c1c2c(oc3cc(O)ccc13)N1C[C@@H]3CCCN4CCC[C@@H]([C@H]34)[C@H]1CC2` are greater than 100 µM, greater than 100 µM, greater than 100 µM and greater than 100 µM.
As for `O=c1c2c(oc3ccc(O)cc13)N1C[C@@H]3CCCN4CCC[C@@H]([C@H]34)[C@H]1CC2`, the IC50 in assay [1], in [2], in assay [3] and in assay [4] was greater than 100 µM in each case.
As for `Cc1ccc2c(=O)c3c(oc2c1)N1C[C@@H]2CCC[N+]4([O-])CCC[C@@H]([C@H]24)[C@H]1CC3` (stereo partly specified), the IC50 in assay [1] came to 57.1 µM; in [2], 53.3 µM; in assay [3] it was 73.8 µM; in assay [4] it was 49.3 µM.
The corresponding values for `COc1ccc2c(=O)c3c(oc2c1)N1C[C@@H]2CCCN4CCC[C@@H]([C@H]24)[C@H]1CC3` are 67.2 µM, 77.4 µM, 97.6 µM and 48 µM.
As for `O=c1c2c(oc3cc(Cl)ccc13)N1C[C@@H]3CCCN4CCC[C@@H]([C@H]34)[C@H]1CC2`, the IC50 was determined as 28.9 µM in [1], 28.1 µM in assay [2], 36 µM in assay [3] and 25.2 µM in assay [4]. Also, the Activity result was “Dose-dependent effect” in [5]; “Tde” in assay [6]; “Tde” in assay [7]; “Dose-dependent effect” in assay [8]; “Dose-dependent effect” in [9]; 67% in [10]. Also, the Activity in [11] amounted to 79%; in [12], 54%; in assay [13] it was 65%; in assay [14], 75%; in [15], 85%; in assay [16], 80%. The Activity is 83% in assay [17]; “Dose-dependent effect” in [20]; “Dose-dependent effect” in [21]; “Dose-dependent effect” in assay [22]; “Dose-dependent effect” in assay [23]. For the same compound, the outcome in [18], in assay [19], in assay [24] and in [25] was Active.
Consider `O=C1CCC[C@@H]2[C@H]3CCCN4CCC[C@@H](CN12)[C@@H]34` [MATRINE], for which the IC50 in assay [1] stood at 1380 µM; in assay [2] it was 2500 µM; in [3] it was 3920 µM; in [4], 2060 µM. The Activity entry in [4] is “Dose-dependent effect”.
Take `O=c1c2c(oc3ccccc13)N1C[C@@H]3CCCN4CCC[C@@H]([C@H]34)[C@H]1CC2`: the IC50 in assay [1], in assay [2], in [3] and in assay [4] was greater than 100 µM throughout.
On to `Cc1cccc2c(=O)c3c(oc12)N1C[C@@H]2CCCN4CCC[C@@H]([C@H]24)[C@H]1CC3`, for which the IC50 in [1] amounted to 51.5 µM; in [2] it was 52.9 µM; in assay [3], 73.2 µM; in [4] it was 40.7 µM.
In the same order, the values of `O=c1c2c(oc3ccc(Cl)cc13)N1C[C@@H]3CCCN4CCC[C@@H]([C@H]34)[C@H]1CC2` are 45.2 µM, 48.2 µM, 57 µM and 36.2 µM.
The corresponding values for `O=c1c2c(oc3cccc(O)c13)N1C[C@@H]3CCCN4CCC[C@@H]([C@H]34)[C@H]1CC2` are greater than 100 µM, greater than 100 µM, greater than 100 µM and greater than 100 µM.
In the same order, the values of `COc1cccc2oc3c(c(=O)c12)CC[C@@H]1[C@H]2CCCN4CCC[C@@H](CN31)[C@@H]24` are 81.7 µM, 74.1 µM, 93.5 µM and 69.5 µM.

What is called IC50 is the midpoint of a concentration-inhibition curve. A lower IC50 goes with greater potency.
